Measured values from patent US20040121968A1, “Antiangiogenesis by inhibiting protein kinase CK2 activity” (priority 2002, published 2004).
Starred links: 1 amine or outer side, 2 acyl side, 3 side chain; linkers in the order of their positions; H or OH if unused. Positions of bridges follow the written chain, without caps; N, C: chain ends. Non-standard residues stand in square brackets, D forms with d. Residues, ends and D or L forms follow the SMILES beside them. Chains are numbered I, II in the order given. Actinocin(9to1) = Cc1c2oc3c(C)ccc(C(=O)[*:1])c3nc-2c(C(=O)[*:2])c(N)c1=O; NMeV = CN[C@H](C(=O)O)C(C)C; Sar = CNCC(=O)O

System: retinal endothelial cells (REC)
Test: REC angiogenic assays taken together (proliferation, secondary sprouting, migration, tube formation)
Assay type: cell-based, bovine
Settings: all assays
Experimental: Human REC (from normal, diabetic and patients with DR [“DR REC”]) and bovine REC were cultured in monolayer (for migration assay) or on top of Matrigel™ where cells form capillary-like tubes. They were treated with angiogenic growth factors or their combinations (at 10 ng/ml of each factor), and seeded with or without TN-C at 10-50 μg/mL. Cell numbers were determined by MTS assay (Promega Corp., Madison, Wis.). Tube length and number, and cell migration were assessed microscopically.
Treatment of REC cultures. Duplicate REC cultures on plastic (for migration) or Matrigel™ with the same number of cells per dish are treated with previously established working concentrations of signaling inhibitors and/or select growth factor combinations. Treatments begin at the time of seeding the cells and medium is changed every other day. Single growth factors are used as negative controls since their modulation of TN-C effects was minimal. Working growth factor concentrations were as follows: VEGF, 1-50 ng/mL depending on the assay; PlGF, 100 ng/mL; FGF-2, 10-100 ng/mL; IGF-I, 25-100 ng/mL; PDGF-BB, 10-100 ng/mL. When used as combinations, each growth factor was supplied at 10 ng/mL for optimum synergy. […]

For Cc1c2oc3c(C)ccc(C(=O)N[C@@H]4C(=O)N[C@H](C(C)C)C(=O)N5CCC[C@H]5C(=O)N(C)CC(=O)N(C)[C@@H](C(C)C)C(=O)O[C@@H]4C)c3nc-2c(C(=O)N[C@@H]2C(=O)N[C@H](C(C)C)C(=O)N3CCC[C@H]3C(=O)N(C)CC(=O)N(C)[C@@H](C(C)C)C(=O)O[C@@H]2C)c(N)c1=O [Actinomycin D] (I: T[dV]P[Sar][NMeV] / II: T[dV]P[Sar][NMeV]; ester I:1-I:C, II:1-II:C; linker I:N-II:N via Actinocin(9to1)), the “effect of inhibitor in the angiogenic assays” value was “only minor changes”.
